Data taken from patent US11786595B2, “Methods for radiotherapy to trigger light activation drugs” (priority 2015, dated 2023).

Legend:
[1] = tested on: Acinetobacter baumannii; conditions: loaded into MCM-41 host, visible light 100 milliWatts per square centimeter; cited from earlier work
[2] = tested on: Venezuelan equine encephalitis virus (VEEV); conditions: cited from earlier work
[3] = tested on: Zaire Ebola virus (ZEBOV); conditions: cited from earlier work
[4] = tested on: B16 melanoma cells; test: CellTiter-Glo luminescence (cell viability) versus TMP concentration, with or without Cherenkov light; assay type: cell-based; conditions: 6 MV x-rays at 2 Gy, 48-hour incubation, with Cherenkov light vs without
[5] = tested on: B16 melanoma cells; test: Flow cytometry of MHC class I expression after X-ray/Cherenkov exposure; assay type: cell-based; conditions: 72 hour incubation

[Mn(PaPy3)(NO)](ClO4) [{Mn—NO}]
clearing of bacteria by released nitric oxide [1]: effectively cleared the bacteria

[N-]=[N+]=Nc1cccc2c(I)cccc12 [INA, 1,5-iodonaphthyl-azide]
virus inactivation [2]: efficiently inactivate | virus infectivity after INA treatment [3]: completely noninfectious

Cc1cc2cc3c(C)cc(=O)oc3c(C)c2o1 [TMP, 4,5′,8-trimethyl psoralen]
cell viability / cell kill [4]: cell viability is reduced | MHC 1 expression ([5]; 15 MV X-ray exposure with Cherenkov light): 13.7% | MHC 1 expression ([5]; control with no Cherenkov (x-rays only)): 8.01% | MHC 1 expression ([5]; control with no x-rays): 5.46%
